Patent publication US4740601A, “Imidazole derivatives having antimicrobial activities” (SS Pharmaceutical Co., Ltd., priority 1985, dated 1988)
≈ marks a conversion by molar mass, not a printed value.

system: Bacillus subtilis ATCC 6633; experiment: antimicrobial activity, MIC; type: cell-based; settings: Bacillus subtilis, ATCC6633, Bacillus subtilis ATCC 6633; read-out: MIC

| SMILES | MIC [µg/mL] |
| --- | --- |
| CCCOc1ccccc1C(=CSCCC)n1ccnc1 (single isomer, unassigned) [Compound 39] | 12.5 (≈ 41.3 µM) |
| CCCCCCOc1ccccc1C(=COC)n1ccnc1 (single isomer, unassigned) [Compound 73] | 6.25 (≈ 20.8 µM) |

system: Staphylococcus aureus FDA 209P; experiment: antimicrobial activity, MIC; type: cell-based; settings: Staphylococcus aureus, FDA209P, read-out: MIC

| SMILES | MIC [µg/mL] |
| --- | --- |
| CCCOc1ccccc1C(=CSCCC)n1ccnc1 (single isomer, unassigned) [Compound 39] | 25 (≈ 82.7 µM) |
| CCCCCCOc1ccccc1C(=COC)n1ccnc1 (single isomer, unassigned) [Compound 73] | 12.5 (≈ 41.6 µM) |

system: Staphylococcus aureus Terajima; experiment: antimicrobial activity, MIC; type: cell-based; settings: Staphylococcus aureus, read-out: MIC

| SMILES | MIC [µg/mL] |
| --- | --- |
| CCCOc1ccccc1C(=CSCCC)n1ccnc1 (single isomer, unassigned) [Compound 39] | 25 (≈ 82.7 µM) |
| CCCCCCOc1ccccc1C(=COC)n1ccnc1 (single isomer, unassigned) [Compound 73] | 6.25 (≈ 20.8 µM) |

system: Staphylococcus aureus Smith; experiment: antimicrobial activity, MIC; type: cell-based; settings: Staphylococcus aureus, read-out: MIC

| SMILES | MIC [µg/mL] |
| --- | --- |
| CCCOc1ccccc1C(=CSCCC)n1ccnc1 (single isomer, unassigned) [Compound 39] | 25 (≈ 82.7 µM) |
| CCCCCCOc1ccccc1C(=COC)n1ccnc1 (single isomer, unassigned) [Compound 73] | 12.5 (≈ 41.6 µM) |

system: Staphylococcus epidermidis ATCC 12228; experiment: antimicrobial activity, MIC; type: cell-based; settings: Staphylococcus epidermidis, ATCC12228, Staphylococcus epidermidis ATCC 12228; read-out: MIC

| SMILES | MIC [µg/mL] |
| --- | --- |
| CCCOc1ccccc1C(=CSCCC)n1ccnc1 (single isomer, unassigned) [Compound 39] | 25 (≈ 82.7 µM) |
| CCCCCCOc1ccccc1C(=COC)n1ccnc1 (single isomer, unassigned) [Compound 73] | 6.25 (≈ 20.8 µM) |

system: Sarcina lutea ATCC 9341; experiment: antimicrobial activity, MIC; type: cell-based; settings: Micrococcus luteus, ATCC9341, Sarcina lutea ATCC 9341; read-out: MIC

| SMILES | MIC [µg/mL] |
| --- | --- |
| CCCOc1ccccc1C(=CSCCC)n1ccnc1 (single isomer, unassigned) [Compound 39] | 12.5 (≈ 41.3 µM) |
| CCCCCCOc1ccccc1C(=COC)n1ccnc1 (single isomer, unassigned) [Compound 73] | 6.25 (≈ 20.8 µM) |

system: Streptococcus faecalis IFO 12964; experiment: antimicrobial activity, MIC; type: cell-based; settings: Enterococcus faecalis, IFO12964, Streptococcus faecalis IFO 12964; read-out: MIC

| SMILES | MIC [µg/mL] |
| --- | --- |
| CCCOc1ccccc1C(=CSCCC)n1ccnc1 (single isomer, unassigned) [Compound 39] | 25 (≈ 82.7 µM) |
| CCCCCCOc1ccccc1C(=COC)n1ccnc1 (single isomer, unassigned) [Compound 73] | 12.5 (≈ 41.6 µM) |

system: Micrococcus lysodeixticus IFO 3333; experiment: antimicrobial activity, MIC; type: cell-based; settings: Micrococcus, IFO3333, Micrococcus lysodeixticus IFO 3333; read-out: MIC

| SMILES | MIC [µg/mL] |
| --- | --- |
| CCCOc1ccccc1C(=CSCCC)n1ccnc1 (single isomer, unassigned) [Compound 39] | 6.25 (≈ 20.7 µM) |
| CCCCCCOc1ccccc1C(=COC)n1ccnc1 (single isomer, unassigned) [Compound 73] | 3.12 (≈ 10.4 µM) |

system: Candida albicans NHL 4019; experiment: antimicrobial activity, MIC; type: cell-based; settings: Candida albicans, NHL4019, Candida albicans NHL 4019; read-out: MIC

| SMILES | MIC [µg/mL] |
| --- | --- |
| CCCOc1ccccc1C(=CSCCC)n1ccnc1 (single isomer, unassigned) [Compound 39] | 25 (≈ 82.7 µM) |
| CCCCCCOc1ccccc1C(=COC)n1ccnc1 (single isomer, unassigned) [Compound 73] | 50 (≈ 166 µM) |

system: Candida albicans Yu-1200; experiment: antimicrobial activity, MIC; type: cell-based; settings: YU1200, read-out: MIC

| SMILES | MIC [µg/mL] |
| --- | --- |
| CCCOc1ccccc1C(=CSCCC)n1ccnc1 (single isomer, unassigned) [Compound 39] | 50 (≈ 165 µM) |
| CCCCCCOc1ccccc1C(=COC)n1ccnc1 (single isomer, unassigned) [Compound 73] | 50 (≈ 166 µM) |

system: Saccharomyces cerevisiae ATCC 9763; experiment: antimicrobial activity, MIC; type: cell-based; settings: Saccharomyces cerevisiae, ATCC9763, Saccharomyces cerevisiae ATCC 9763; read-out: MIC

| SMILES | MIC [µg/mL] |
| --- | --- |
| CCCOc1ccccc1C(=CSCCC)n1ccnc1 (single isomer, unassigned) [Compound 39] | 0.39 (≈ 1.29 µM) |
| CCCCCCOc1ccccc1C(=COC)n1ccnc1 (single isomer, unassigned) [Compound 73] | 50 (≈ 166 µM) |

system: Saccharomyces ruxii 6507; experiment: antimicrobial activity, MIC; type: cell-based; settings: Saccharomyces ruxii 6507; read-out: MIC

| SMILES | MIC [µg/mL] |
| --- | --- |
| CCCOc1ccccc1C(=CSCCC)n1ccnc1 (single isomer, unassigned) [Compound 39] | 0.78 (≈ 2.58 µM) |

same assay, conditions: Saccharomyces, 6507, Saccharomyces ruxii 6507

| SMILES | MIC [µg/mL] |
| --- | --- |
| CCCCCCOc1ccccc1C(=COC)n1ccnc1 (single isomer, unassigned) [Compound 73] | 1.56 (≈ 5.19 µM) |

system: Aspergillus niger ATCC 9642; experiment: antimicrobial activity, MIC; type: cell-based; settings: Aspergillus niger, ATCC9642, Aspergillus niger ATCC 9642; read-out: MIC

| SMILES | MIC [µg/mL] |
| --- | --- |
| CCCOc1ccccc1C(=CSCCC)n1ccnc1 (single isomer, unassigned) [Compound 39] | 1.56 (≈ 5.16 µM) |
| CCCCCCOc1ccccc1C(=COC)n1ccnc1 (single isomer, unassigned) [Compound 73] | 12.5 (≈ 41.6 µM) |

system: Penicillium chrysogenum ATCC 6010; experiment: antimicrobial activity, MIC; type: cell-based; settings: Penicillium chrysogenum, ATCC6010, Penicillium chrysogenum ATCC 6010; read-out: MIC

| SMILES | MIC [µg/mL] |
| --- | --- |
| CCCOc1ccccc1C(=CSCCC)n1ccnc1 (single isomer, unassigned) [Compound 39] | 1.56 (≈ 5.16 µM) |
| CCCCCCOc1ccccc1C(=COC)n1ccnc1 (single isomer, unassigned) [Compound 73] | 6.25 (≈ 20.8 µM) |

system: Trichophyton mentagrophytes QM 248; experiment: antimicrobial activity, MIC; type: cell-based; settings: Trichophyton mentagrophytes, QM248, Trichophyton mentagrophytes QM 248; read-out: MIC

| SMILES | MIC [µg/mL] |
| --- | --- |
| CCCOc1ccccc1C(=CSCCC)n1ccnc1 (single isomer, unassigned) [Compound 39] | 0.39 (≈ 1.29 µM) |
| CCCCCCOc1ccccc1C(=COC)n1ccnc1 (single isomer, unassigned) [Compound 73] | 3.12 (≈ 10.4 µM) |

system: Trichophyton mentagrophytes IFO 5812; experiment: antimicrobial activity, MIC; type: cell-based; settings: Trichophyton mentagrophytes IFO 5812

| SMILES | MIC [µg/mL] |
| --- | --- |
| CCCCCCOc1ccccc1C(=COC)n1ccnc1 (single isomer, unassigned) [Compound 73] | 1.56 (≈ 5.19 µM) |

same assay, conditions: Trichophyton mentagrophytes, IFO5812, Trichophyton mentagrophytes IFO 5812; read-out: MIC

| SMILES | MIC [µg/mL] |
| --- | --- |
| CCCOc1ccccc1C(=CSCCC)n1ccnc1 (single isomer, unassigned) [Compound 39] | 0.39 (≈ 1.29 µM) |

system: Trichophyton tonsurans IFO 5928; experiment: antimicrobial activity, MIC; type: cell-based; settings: Trichophyton tonsurans, IFO5928, Trichophyton tonsurans IFO 5928; read-out: MIC

| SMILES | MIC [µg/mL] |
| --- | --- |
| CCCOc1ccccc1C(=CSCCC)n1ccnc1 (single isomer, unassigned) [Compound 39] | 0.39 (≈ 1.29 µM) |
| CCCCCCOc1ccccc1C(=COC)n1ccnc1 (single isomer, unassigned) [Compound 73] | 3.12 (≈ 10.4 µM) |

system: Trichophyton rubrum NHL J; experiment: antimicrobial activity, MIC; type: cell-based; settings: Trichophyton rubrum

| SMILES | MIC [µg/mL] |
| --- | --- |
| CCCCCCOc1ccccc1C(=COC)n1ccnc1 (single isomer, unassigned) [Compound 73] | 1.56 (≈ 5.19 µM) |

same assay, conditions: Trichophyton rubrum, Trichophyton rubrum NHL J; read-out: MIC

| SMILES | MIC [µg/mL] |
| --- | --- |
| CCCOc1ccccc1C(=CSCCC)n1ccnc1 (single isomer, unassigned) [Compound 39] | < 0.2 |

system: Microsporum gypseum IFO 8231; experiment: antimicrobial activity, MIC; type: cell-based; settings: Nannizzia gypsea, IFO8231, Microsporum gypseum IFO 8231; read-out: MIC

| SMILES | MIC [µg/mL] |
| --- | --- |
| CCCOc1ccccc1C(=CSCCC)n1ccnc1 (single isomer, unassigned) [Compound 39] | 0.39 (≈ 1.29 µM) |
| CCCCCCOc1ccccc1C(=COC)n1ccnc1 (single isomer, unassigned) [Compound 73] | 3.12 (≈ 10.4 µM) |

system: Microsporum audounii IFO 6074; experiment: antimicrobial activity, MIC; type: cell-based; settings: Microsporum, IFO6074, Microsporum audounii IFO 6074; read-out: MIC

| SMILES | MIC [µg/mL] |
| --- | --- |
| CCCOc1ccccc1C(=CSCCC)n1ccnc1 (single isomer, unassigned) [Compound 39] | < 0.2 |
| CCCCCCOc1ccccc1C(=COC)n1ccnc1 (single isomer, unassigned) [Compound 73] | 0.78 (≈ 2.6 µM) |

system: Microsporum cookei IFO 8303; experiment: antimicrobial activity, MIC; type: cell-based; settings: Paraphyton cookei, IFO8303, Microsporum cookei IFO 8303; read-out: MIC

| SMILES | MIC [µg/mL] |
| --- | --- |
| CCCOc1ccccc1C(=CSCCC)n1ccnc1 (single isomer, unassigned) [Compound 39] | 1.56 (≈ 5.16 µM) |
| CCCCCCOc1ccccc1C(=COC)n1ccnc1 (single isomer, unassigned) [Compound 73] | 6.25 (≈ 20.8 µM) |

system: Epidermophyton floccosum IFO 9045; experiment: antimicrobial activity, MIC; type: cell-based; settings: Epidermophyton floccosum, IFO9045, Epidermophyton floccosum IFO 9045; read-out: MIC

| SMILES | MIC [µg/mL] |
| --- | --- |
| CCCOc1ccccc1C(=CSCCC)n1ccnc1 (single isomer, unassigned) [Compound 39] | 1.56 (≈ 5.16 µM) |
| CCCCCCOc1ccccc1C(=COC)n1ccnc1 (single isomer, unassigned) [Compound 73] | 6.25 (≈ 20.8 µM) |

system: Aspergillus oryzae IMF 4014; experiment: antimicrobial activity, MIC; type: cell-based; settings: Aspergillus oryzae, IMF4014, Aspergillus oryzae IMF 4014; read-out: MIC

| SMILES | MIC [µg/mL] |
| --- | --- |
| CCCOc1ccccc1C(=CSCCC)n1ccnc1 (single isomer, unassigned) [Compound 39] | 0.78 (≈ 2.58 µM) |
| CCCCCCOc1ccccc1C(=COC)n1ccnc1 (single isomer, unassigned) [Compound 73] | 6.25 (≈ 20.8 µM) |

system: Cladosporium fulvum IAM 5006; experiment: antimicrobial activity, MIC; type: cell-based; settings: Fulvia fulva, IAM5006, Cladosporium fulvum IAM 5006; read-out: MIC

| SMILES | MIC [µg/mL] |
| --- | --- |
| CCCOc1ccccc1C(=CSCCC)n1ccnc1 (single isomer, unassigned) [Compound 39] | 25 (≈ 82.7 µM) |
| CCCCCCOc1ccccc1C(=COC)n1ccnc1 (single isomer, unassigned) [Compound 73] | 6.25 (≈ 20.8 µM) |

system: Fusarium moniliforme IAM 5062; experiment: antimicrobial activity, MIC; type: cell-based; settings: Fusarium verticillioides, IAM5062, Fusarium moniliforme IAM 5062; read-out: MIC

| SMILES | MIC [µg/mL] |
| --- | --- |
| CCCOc1ccccc1C(=CSCCC)n1ccnc1 (single isomer, unassigned) [Compound 39] | 0.78 (≈ 2.58 µM) |
| CCCCCCOc1ccccc1C(=COC)n1ccnc1 (single isomer, unassigned) [Compound 73] | 12.5 (≈ 41.6 µM) |

system: Helminthosporium sesamum IAM 5012; experiment: antimicrobial activity, MIC; type: cell-based; settings: Helminthosporium, IAM5012, Helminthosporium sesamum IAM 5012; read-out: MIC

| SMILES | MIC [µg/mL] |
| --- | --- |
| CCCOc1ccccc1C(=CSCCC)n1ccnc1 (single isomer, unassigned) [Compound 39] | 0.39 (≈ 1.29 µM) |
| CCCCCCOc1ccccc1C(=COC)n1ccnc1 (single isomer, unassigned) [Compound 73] | 6.25 (≈ 20.8 µM) |

system: Pyricularia oryzae IAM 5016; experiment: microbe, parasite or virus in culture; type: cell-based; settings: Pyricularia oryzae, IAM5016, Pyricularia oryzae IAM 5016

| SMILES | MIC [µg/mL] |
| --- | --- |
| CCCOc1ccccc1C(=CSCCC)n1ccnc1 (single isomer, unassigned) [Compound 39] | < 0.2 |
| CCCCCCOc1ccccc1C(=COC)n1ccnc1 (single isomer, unassigned) [Compound 73] | 1.56 (≈ 5.19 µM) |

system: Debaryomyces kloeckeri IFO 0015; experiment: antimicrobial activity, MIC; type: cell-based; settings: IFO0015, read-out: MIC

| SMILES | MIC [µg/mL] |
| --- | --- |
| CCCOc1ccccc1C(=CSCCC)n1ccnc1 (single isomer, unassigned) [Compound 39] | 6.25 (≈ 20.7 µM) |
| CCCCCCOc1ccccc1C(=COC)n1ccnc1 (single isomer, unassigned) [Compound 73] | 3.12 (≈ 10.4 µM) |

system: Gibberella fujikuroi IAM 8046; experiment: antimicrobial activity, MIC; type: cell-based; settings: Fusarium fujikuroi, IAM8046, Gibberella fujikuroi IAM 8046; read-out: MIC

| SMILES | MIC [µg/mL] |
| --- | --- |
| CCCOc1ccccc1C(=CSCCC)n1ccnc1 (single isomer, unassigned) [Compound 39] | 0.78 (≈ 2.58 µM) |
| CCCCCCOc1ccccc1C(=COC)n1ccnc1 (single isomer, unassigned) [Compound 73] | 6.25 (≈ 20.8 µM) |
